From patent publication US6814319B2, “Laboratory scale milling process” (Pharmacia & Upjohn Company, priority 2000, dated 2004)

Experiments:
Assay type in all cases: physicochemical
[1] = D50 particle size of milled drug, X-ray diffraction; conditions: size detection by X-ray diffraction; after magnetic stir-bar milling, parameters of Table 2
From the text: (§1) Valdecoxib, linezolid, phenytoin, griseofulvin and carbamazepine were milled according to the general procedure described for celecoxib in Example 1.

[2] = D50 particle size of milled drug, turbidimetry; conditions: size detection by turbidimetry; after magnetic stir-bar milling, parameters of Table 2
From the text: as §1

[3] = D50 particle size of milled drug, optical microscopy; conditions: size detection by optical microscopy; after magnetic stir-bar milling, parameters of Table 2
From the text: as §1

Row | D50 (nm) [1] | D50 (nm) [2] | D50 (nm) [3] | SMILES
1 | 2600^3 nm | 2500^1 nm |  | NC(=O)N1c2ccccc2C=Cc2ccccc21 [Carbamazepine]
2 | 160^3 nm | 250^1 nm |  | COC1=CC(=O)C[C@@H](C)[C@]12Oc1c(Cl)c(OC)cc(OC)c1C2=O [Griseofulvin]
3 |  | 1900^1 nm | 1000^2 nm | CC(=O)NC[C@H]1CN(c2ccc(N3CCOCC3)c(F)c2)C(=O)O1 [Linezolid]
4 | 130^3 nm | 200^1 nm |  | O=C1NC(=O)C(c2ccccc2)(c2ccccc2)N1 [Phenytoin]
5 |  | 460^1 nm |  | Cc1onc(-c2ccccc2)c1-c1ccc(S(N)(=O)=O)cc1 [Valdecoxib]
